HELM strings list units from the 5' end as sugar, base in round brackets, then linkage (d deoxyribose, r ribose, m 2'-O-methyl, p phosphodiester). [sp] = phosphorothioate linkage

The target in data set [1] is CDKN2B-AS1. The experiment in a line: HEK293-TLR8, 100 nM ASO, then resiquimod.
Data set [2] addresses CDKN2B-AS1. In words: HEK293-TLR7, 100 nM ASO, then resiquimod.

For “RNA1{m(C)[sp].m(A)[sp].m(G)[sp].m(U)[sp].m(C)[sp].d(T)[sp].d(C)[sp].d(C)[sp].d(A)[sp].d(T)[sp].d(G)[sp].d(T)[sp].d(C)[sp].d(C)[sp].d(C)[sp].m(A)[sp].m(G)[sp].m(G)[sp].m(C)[sp].m(C)}$$$$”, in the data set with CDKN2B-AS1 [1], the TLR8 potentiation (NF-kB luciferase) (fold of resiquimod alone) was found to be 2.73. In addition, the TLR7 signal (NF-kB luciferase) (% of resiquimod alone) with CDKN2B-AS1 [2] is 47.8.

For “RNA1{m(A)[sp].m(G)[sp].m(G)[sp].m(A)[sp].m(U)[sp].d(T)[sp].d(A)[sp].d(A)[sp].d(A)[sp].d(A)[sp].d(C)[sp].d(A)[sp].d(G)[sp].d(A)[sp].d(T)[sp].m(U)[sp].m(A)[sp].m(A)[sp].m(U)[sp].m(A)}$$$$”, in the data set with CDKN2B-AS1 [1], the TLR8 potentiation (NF-kB luciferase) (fold of resiquimod alone) is 2.19. This substance also registered a TLR7 signal (NF-kB luciferase) (% of resiquimod alone) with CDKN2B-AS1 [2] of 36.3.

In the case of “RNA1{m(G)[sp].m(C)[sp].m(A)[sp].m(G)[sp].m(U)[sp].d(C)[sp].d(T)[sp].d(C)[sp].d(C)[sp].d(A)[sp].d(T)[sp].d(G)[sp].d(T)[sp].d(C)[sp].d(C)[sp].m(C)[sp].m(A)[sp].m(G)[sp].m(G)[sp].m(C)}$$$$”, the TLR8 potentiation (NF-kB luciferase) (fold of resiquimod alone) with CDKN2B-AS1 [1] stood at 1.79. In the data set with CDKN2B-AS1 [2], the TLR7 signal (NF-kB luciferase) (% of resiquimod alone) worked out at 20.3.

As for “RNA1{m(G)[sp].m(U)[sp].m(C)[sp].m(A)[sp].m(A)[sp].d(A)[sp].d(C)[sp].d(C)[sp].d(T)[sp].d(A)[sp].d(G)[sp].d(A)[sp].d(A)[sp].d(A)[sp].d(G)[sp].m(A)[sp].m(A)[sp].m(G)[sp].m(C)[sp].m(A)}$$$$”, the TLR8 potentiation (NF-kB luciferase) (fold of resiquimod alone) in the data set with CDKN2B-AS1 [1] was 1.6. Further, the TLR7 signal (NF-kB luciferase) (% of resiquimod alone) with CDKN2B-AS1 [2] was 23.6.

As for “RNA1{m(A)[sp].m(A)[sp].m(G)[sp].m(A)[sp].m(U)[sp].d(T)[sp].d(A)[sp].d(T)[sp].d(C)[sp].d(T)[sp].d(T)[sp].d(C)[sp].d(T)[sp].d(T)[sp].d(T)[sp].m(U)[sp].m(A)[sp].m(A)[sp].m(U)[sp].m(U)}$$$$”, the TLR8 potentiation (NF-kB luciferase) (fold of resiquimod alone) in the data set with CDKN2B-AS1 [1] is 2.91. The same substance had a TLR7 signal (NF-kB luciferase) (% of resiquimod alone) in the data set with CDKN2B-AS1 [2] of 42.1.

Take “RNA1{m(C)[sp].m(C)[sp].m(A)[sp].m(U)[sp].m(G)[sp].d(T)[sp].d(C)[sp].d(C)[sp].d(C)[sp].d(A)[sp].d(G)[sp].d(G)[sp].d(C)[sp].d(C)[sp].d(T)[sp].m(C)[sp].m(C)[sp].m(A)[sp].m(G)[sp].m(U)}$$$$”: in the data set with CDKN2B-AS1 [1], the TLR8 potentiation (NF-kB luciferase) (fold of resiquimod alone) is 1.24. The TLR7 signal (NF-kB luciferase) (% of resiquimod alone) with CDKN2B-AS1 [2] worked out at 41.4.

Turning to “RNA1{m(C)[sp].m(U)[sp].m(U)[sp].m(C)[sp].m(A)[sp].d(C)[sp].d(A)[sp].d(T)[sp].d(C)[sp].d(C)[sp].d(A)[sp].d(A)[sp].d(G)[sp].d(A)[sp].d(C)[sp].m(A)[sp].m(G)[sp].m(C)[sp].m(A)[sp].m(A)}$$$$”, the TLR8 potentiation (NF-kB luciferase) (fold of resiquimod alone) with CDKN2B-AS1 [1] came to 2.26. Also, in the data set with CDKN2B-AS1 [2], the TLR7 signal (NF-kB luciferase) (% of resiquimod alone) was 55.

Take “RNA1{m(A)[sp].m(G)[sp].m(G)[sp].m(C)[sp].m(C)[sp].d(T)[sp].d(C)[sp].d(C)[sp].d(A)[sp].d(G)[sp].d(T)[sp].d(G)[sp].d(T)[sp].d(C)[sp].d(T)[sp].m(U)[sp].m(C)[sp].m(U)[sp].m(C)[sp].m(C)}$$$$”: in the data set with CDKN2B-AS1 [1], the TLR8 potentiation (NF-kB luciferase) (fold of resiquimod alone) came out at 2.19. For the same substance, in the data set with CDKN2B-AS1 [2], the TLR7 signal (NF-kB luciferase) (% of resiquimod alone) came out at 44.7.

In the case of “RNA1{m(G)[sp].m(A)[sp].m(G)[sp].m(U)[sp].m(U)[sp].d(C)[sp].d(T)[sp].d(T)[sp].d(C)[sp].d(G)[sp].d(T)[sp].d(A)[sp].d(G)[sp].d(G)[sp].d(C)[sp].m(U)[sp].m(U)[sp].m(C)[sp].m(U)[sp].m(G)}$$$$”, the TLR8 potentiation (NF-kB luciferase) (fold of resiquimod alone) in the data set with CDKN2B-AS1 [1] is 0.96. Further, in the data set with CDKN2B-AS1 [2], the TLR7 signal (NF-kB luciferase) (% of resiquimod alone) was 25.9.

As to “RNA1{m(A)[sp].m(U)[sp].m(A)[sp].m(U)[sp].m(C)[sp].d(T)[sp].d(G)[sp].d(C)[sp].d(T)[sp].d(G)[sp].d(C)[sp].d(C)[sp].d(C)[sp].d(A)[sp].d(C)[sp].m(C)[sp].m(U)[sp].m(U)[sp].m(C)[sp].m(U)}$$$$”, the TLR8 potentiation (NF-kB luciferase) (fold of resiquimod alone) with CDKN2B-AS1 [1] was found to be 2.55. The substance also came in with a TLR7 signal (NF-kB luciferase) (% of resiquimod alone) with CDKN2B-AS1 [2] of 47.5.

With “RNA1{m(C)[sp].m(C)[sp].m(U)[sp].m(A)[sp].m(G)[sp].d(A)[sp].d(A)[sp].d(A)[sp].d(G)[sp].d(A)[sp].d(A)[sp].d(G)[sp].d(C)[sp].d(A)[sp].d(A)[sp].m(A)[sp].m(G)[sp].m(A)[sp].m(U)[sp].m(U)}$$$$”, the TLR8 potentiation (NF-kB luciferase) (fold of resiquimod alone) in the data set with CDKN2B-AS1 [1] was found to be 3.58. In the data set with CDKN2B-AS1 [2], the TLR7 signal (NF-kB luciferase) (% of resiquimod alone) worked out at 57.2.

On to “RNA1{m(C)[sp].m(A)[sp].m(G)[sp].m(G)[sp].m(C)[sp].d(C)[sp].d(T)[sp].d(C)[sp].d(C)[sp].d(A)[sp].d(G)[sp].d(T)[sp].d(G)[sp].d(T)[sp].d(C)[sp].m(U)[sp].m(U)[sp].m(C)[sp].m(U)[sp].m(C)}$$$$”, for which, in the data set with CDKN2B-AS1 [1], the TLR8 potentiation (NF-kB luciferase) (fold of resiquimod alone) is 2.02. Also, the TLR7 signal (NF-kB luciferase) (% of resiquimod alone) with CDKN2B-AS1 [2] came out at 54.1.

With “RNA1{m(U)[sp].m(G)[sp].m(U)[sp].m(G)[sp].m(A)[sp].d(A)[sp].d(A)[sp].d(A)[sp].d(G)[sp].d(A)[sp].d(T)[sp].d(T)[sp].d(A)[sp].d(T)[sp].d(C)[sp].m(U)[sp].m(U)[sp].m(C)[sp].m(U)[sp].m(U)}$$$$”, the TLR8 potentiation (NF-kB luciferase) (fold of resiquimod alone) in the data set with CDKN2B-AS1 [1] worked out at 2.79. For the same substance, the TLR7 signal (NF-kB luciferase) (% of resiquimod alone) with CDKN2B-AS1 [2] is 34.5.

With “RNA1{m(G)[sp].m(U)[sp].m(G)[sp].m(U)[sp].m(C)[sp].d(C)[sp].d(T)[sp].d(T)[sp].d(C)[sp].d(A)[sp].d(T)[sp].d(G)[sp].d(C)[sp].d(T)[sp].d(T)[sp].m(U)[sp].m(G)[sp].m(G)[sp].m(A)[sp].m(U)}$$$$”, the TLR8 potentiation (NF-kB luciferase) (fold of resiquimod alone) with CDKN2B-AS1 [1] is 1.33. Further, the TLR7 signal (NF-kB luciferase) (% of resiquimod alone) with CDKN2B-AS1 [2] amounted to 18.1.

(Values after the OligoGym collection.)
